Experimental data from patent publication US7884076B2, “Multipeptide regimen for the treatment of autistic spectrum, behavioral, emotional and visceral inflammation/autoimmune disorders” (The Trustees of Columbia University In the City of New York, priority 2003, dated 2011).
Entries after “also recorded” stand apart in the source; their conditions may differ. No end group written: not given here.

Columns and labels:
[1] = test system: c-fos protein expression in brain regions; experiment: i.c.v. secretin, immunocytochemical detection of Fos in rat brain; format: in vivo, Sprague-Dawley rats; details: i.c.v. lateral ventricle, secretin vs PBS, perfused 3 hours after injection, region named in the value
Source text: The inventors obtained data in eight adult male Sprague-Dawley rats weighing 250-450 g. The rats were obtained from Hilltop Lab Animals, Inc. (Scottdale, Pa.). Under ketamine-xylazine anesthesia, using sterile techniques, a stainless steel guide cannula was stereotaxically inserted into the lateral ventricle of each rat. Each cannula was affixed in place with dental cement secured to the skull. To prevent clogging, a removable 27 gauge wire was inserted into the guide cannula. The placement of the cannula with reference to bregma was 1.4-mm lateral, 0.5-mm caudal, and a depth of 2.5 mm from the surface of the skull. The rats were allowed to recover for 4-5 days before the injections. During this time, both experimental and control rats were administered 0.01 ml/kg buprinorphine hydrochloride every 6 h to reduce pain. Injections were made in the lateral ventricle 5 mm from the surface of the skull, via a premeasured cannula attached by polyethylene tubing (PE20) to a 25 ILL Hamilton syringe containing either phosphate buffered saline (PBS) at pH 7.4 (n=4) or 10 ILg (n=1, pilot study) or 30 ILg (n=3) of secretin (Sigma, St. Louis, Mo.) dissolved in 5-10 ILL PBS. Secretin injections were performed between 11:00 A.M. and 1:00 P.M.
Three hours after the i.c.v. injection, rats were administered sodium pentobarbital and perfused transcardially with heparinized, physiological saline followed by a 4% solution of paraformaldehyde in sodium phosphate buffer, pH 7.4. Whole brains were removed and blocked. Identical procedures were followed in control (n=4) and experimental animals (n=4). Tissue blocks were postfixed for 2-3 h in individual glass vials containing 4% paraformaldehyde in 0.1 M phosphate buffer (PBS, pH 7.4) and cryoprotected overnight at 4° C. in a solution of 10% sucrose in 0.1 M PBS. Frozen sections were cut on a sliding microtome at 30 JLm in the transverse plane and every fourth section was processed immunocytochemically for c-fos protein. Tissues from control and experimental animals were processed simultaneously in the same solutions in order to control for potential variability in immunocytochemistry. All incubations were carried out in separate test wells on a Thomas rotator table. Tissues were collected in 0.1 M PBS (pH 7.4) in spot test wells and washed in Tris-buffered saline (TBS) between each step. Nonspecific binding sites were blocked by preincubating for 30 min in bovine serum albumin (BSA), diluted 1:30 in TBS. Thereafter, sections were incubated overnight in primary whole rabbit antiserum raised against Fos protein diluted 1:10,000 (Oncogene, Cambridge, Mass.). The antisera were diluted in TBS containing 0.1% BSA, to which 0.25% Triton X-100 was added to facilitate antibody penetration. […]

[2] = test system: IL10-/- colitis, colon inflammation; experiment: IL-10-/- mouse colitis (genetic IBD), hematoxylin/eosin gut histology; format: in vivo, C57B6 IL-10-/- mice; details: I.P. infusion by Alzet pump, vs saline
Source text: An acquired IBD model was created by inducing Colitis in male Sprague-Dawley rats (n=10) with trinitrobenzene sulfonic acid (TNBS) enema. A genetic IBD model was also created using IL-10 mutant mice. IBD criteria was confirmed in both groups by analyzing numbers of lymphocytes and epithelial destruction, and concomitant cerebral metabolic activity patterns comparing regional induction of c-fos gene expression. Control rats (n=11) and control mice (n=5) were also maintained.
Both the acquired IBD (rat) and genetic IBD (mouse) groups were treated with a combined peptide therapy consisting of co-administration of secretin and oxytocin. The acquired IBD subjects were administered a combination of secretin and oxytocin (40 μg/100 μl i.v.×7-20 days two weeks after disease induction). The genetic IBD subjects were administered a combination of secretin and oxytocin (40 μg/100 μl i.v.×7-20 days at age 18 weeks).
Data were obtained in 21 adult male Sprague-Dawley rats weighing 250-450 g and in 14 C57B6 IL-10−/− mice. Rats were obtained from Hilltop Lab Animals, Inc. (Scottdale, Pa.) and housed at the New York State Psychiatric Institute Housing Facility. Mice were obtained from Jackson Laboratory (Bar Harbor, Me.) and housed at the Eye Institute Annex of Columbia University.
Sprague-Dawley rats (n=10) were anesthetized with ketamine and xylazine and administered a solution of trinitrobenzene sulfonic acid (TNBS). 0.5 ml of TNBS solution (100 μl TNBS 5% solution; 150 μl PBS; 250 μl 100% ethanol) […] was administered intrarectally (Dohi T, et al., '00). Control rats (n=11) were injected with phosphate buffered saline (PBS) solution alone. On days 0, 3 and 7, the TNBS enema was administered via a glass microsyringe equipped with a gastric intubation needle. The animals were treated at the following time intervals: […] after the TNBS treatment in the Sprague-Dawley rats and at 18 weeks of age in the IL-10−/− mice.
Animals were anesthetized with xylazine (7-10 mg/kg I.P.) and ketamine (60 mg/kg I.P.) prior to implantation of an Alzet pump (model #2002). […]

[3] = test system: c-fos protein expression in brain regions; experiment: i.c.v. secretin, immunocytochemical detection of Fos in rat brain; format: in vivo, Sprague-Dawley rats; details: secretin infusion into the fourth ventricle (Example 4)

Substance: secretin (HSDGTFTSELSRLRDSARLQRLLQGLV; not fully specified; ends and bridges not checked; UniProt P63298 33-59, looked up) [twenty-seven amino acid peptide and an enterogastrone; commercially available as SecreFlo]
- Fos immunoreactivity (c-fos expression) attenuated in brain regions [1]: attenuated Fos labeling; also recorded: attenuated c-fos expression of the parietal cortex
- Fos immunoreactivity (c-fos expression) induced in brain regions [1]: c-fos induction in ependymal and subependymal nuclei lining the third ventricle; also recorded: most heavily concentrated along the medial bank of the prefrontal cortex, the orbitofrontal cortex, the anterior olfactory nucleus, and the piriform cortex; also recorded: Fos immunoreactivity in behavioral, endocrine, and autonomic areas; also recorded: activated the NTS and its projection fields in the reticular formation, diffuse projection systems and the mesolimbic network; also recorded: area postrema was also activated; also recorded: induced c-fos expression in the locus ceruleus (LC); also recorded: induced c-fos expression of ependymal (arrows) and subependymal cells lining the third ventricle (III); also recorded: induced c-fos expression of the piriform cortex
- Fos immunoreactivity (c-fos expression) attenuated in brain regions ([1]; listed as Secretin): attenuated Fos immunoreactivity in the dorsal periaqueductal gray, the intralamanar thalamus, the medial parvicellular hypothalamus, which synthesizes corticotrophin releasing hormone, the motor cortex, and the somatosensory and association areas of the parietal cortex
- Fos immunoreactivity (c-fos expression) induced in brain regions ([1]; listed as Secretin): altered numbers of Fos immunoreactive nuclei, mainly in visceral and limbic areas of the brain; also recorded: induced c-fos protein expression in the dorsal vagal complex, including the general afferent division of NTS and the dorsal motor nucleus; also recorded: Fos IR was concentrated throughout the area postrema and its subpostremal region of transition with the NTS and the commissural, medial parvicellular and periventricular subnuclei; also recorded: activated c-fos expression in cells in the intermediate reticular region of the lateral tegmental field; also recorded: induced c-fos expression in the locus ceruleus (FIG. 3), ventral periaqueductal gray, and the paraventricular thalamic nucleus; also recorded: the predominant labeling mapped to the paraventricular hypothalamic nucleus, mainly its periventricular region and magnocellular subdivision; also recorded: induced c-fos in the medial and central amygdala and the lateral septal complex
- colon inflammation / inflammatory infiltrates, hematoxylin and eosin histology [2]: partial resolution of colon inflammation
- colon inflammation / inflammatory infiltrates, hematoxylin and eosin histology ([2]; listed as S): partial resolution of inflammation
- colon inflammation / inflammatory infiltrates, hematoxylin and eosin histology ([2]; listed as Secretin): dramatic increase in inflammatory infiltrate
- brain regions activated [3]: activated comparable brain regions; viscerothalamic and HPA stress axes, amygdala, and ependyma
